Assays:
rat P2X3 receptor = molecular target: T1, rat P2X3 receptor (Rattus norvegicus, UniProt P49654); assay: P2X3 FLIPR (Fluorometric Imaging Plate Reader) assay; type: cell-based; details: CHO-K1 cells transfected with cloned rat P2X3; agonist α,β-meATP 1 μM; Fluo-3 calcium fluorescence
T1 construct: expressed in transfected cells; host or cells: CHO-K1
T1 sequence (P49654 1-397): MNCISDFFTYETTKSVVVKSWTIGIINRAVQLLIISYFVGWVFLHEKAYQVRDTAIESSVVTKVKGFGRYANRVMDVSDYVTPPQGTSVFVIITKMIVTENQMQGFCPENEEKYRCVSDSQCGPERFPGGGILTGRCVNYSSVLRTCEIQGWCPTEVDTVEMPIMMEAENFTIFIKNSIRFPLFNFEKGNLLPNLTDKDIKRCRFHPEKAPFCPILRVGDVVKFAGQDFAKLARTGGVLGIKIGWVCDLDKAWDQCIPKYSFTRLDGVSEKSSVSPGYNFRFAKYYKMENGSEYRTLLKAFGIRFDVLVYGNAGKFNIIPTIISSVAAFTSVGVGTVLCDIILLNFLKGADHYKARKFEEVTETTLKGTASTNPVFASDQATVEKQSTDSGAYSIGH
Experimental: (§1) P2X3/P2X2/3 FLIPR (Fluorometric Imaging Plate Reader) Assay
(§2) CHO-K1 cells were transfected with cloned rat P2X3 or human P2X2/3 receptor subunits and passaged in flasks. 18-24 hours before the FLIPR experiment, cells were released from their flasks, centrifuged, and resuspended in nutrient medium at 2.5×10^5 cells/ml. The cells were aliquoted into black-walled 96-well plates at a density of 50,000 cells/well and incubated overnight in 5% CO2 at 37° C. On the day of the experiment, cells were washed in FLIPR buffer (calcium- and magnesium-free Hank's balanced salt solution, 10 mM HEPES, 2 mM CaCl2, 2.5 mM probenecid; FB). Each well received 100 μl FB and 100 μl of the fluorescent dye Fluo-3 AM [2 μM final conc.]. After a 1 hour dye loading incubation at 37° C., the cells were washed 4 times with FB, and a final 75 μl/well FB was left in each well.
(§3) Test compounds (dissolved in DMSO at 10 mM and serially diluted with FB) or vehicle were added to each well (25 μl of a 4× solution) and allowed to equilibrate for 20 minutes at room temperature. The plates were then placed in the FLIPR and a baseline fluorescence measurement (excitation at 488 nm and emission at 510-570 nm) was obtained for 10 seconds before a 100 μl/well agonist or vehicle addition. The agonist was a 2× solution of α,β-meATP producing a final concentration of 1 μM (P2X3) or 5 μM (P2X2/3). Fluorescence was measured for an additional 2 minutes at 1 second intervals after agonist addition. A final addition of ionomycin (5 μM, final concentration) was made to each well of the FLIPR test plate to establish cell viability and maximum fluorescence of dye-bound cytosolic calcium. Peak fluorescence in response to the addition of α,β-meATP (in the absence and presence of test compounds) was measured and inhibition curves generated using nonlinear regression. PPADS, a standard P2X antagonist, was used as a positive control.

human P2X2/3 receptor = molecular target: T2, human P2X2/3 receptor (Homo sapiens, UniProt P56373+Q9UBL9); assay: P2X2/3 FLIPR (Fluorometric Imaging Plate Reader) assay; type: cell-based; details: CHO-K1 cells transfected with human P2X2/3; agonist α,β-meATP 5 μM; Fluo-3 calcium fluorescence
T2 construct: expressed in transfected cells; host or cells: CHO-K1
T2 sequence (Q9UBL9 1-471): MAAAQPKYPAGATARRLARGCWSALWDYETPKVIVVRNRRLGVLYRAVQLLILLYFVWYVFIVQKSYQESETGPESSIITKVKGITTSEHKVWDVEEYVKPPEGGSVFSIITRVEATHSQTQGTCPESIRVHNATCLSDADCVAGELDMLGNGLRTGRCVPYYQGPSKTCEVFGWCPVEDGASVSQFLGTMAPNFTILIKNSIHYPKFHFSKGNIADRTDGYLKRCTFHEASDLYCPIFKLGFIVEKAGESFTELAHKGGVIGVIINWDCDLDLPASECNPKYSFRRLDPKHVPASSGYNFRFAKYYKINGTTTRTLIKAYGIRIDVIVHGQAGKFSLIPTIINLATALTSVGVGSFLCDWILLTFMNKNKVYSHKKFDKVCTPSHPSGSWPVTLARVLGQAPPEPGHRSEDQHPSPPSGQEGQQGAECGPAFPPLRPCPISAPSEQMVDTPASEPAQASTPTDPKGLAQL
T2 sequence (P56373 1-397): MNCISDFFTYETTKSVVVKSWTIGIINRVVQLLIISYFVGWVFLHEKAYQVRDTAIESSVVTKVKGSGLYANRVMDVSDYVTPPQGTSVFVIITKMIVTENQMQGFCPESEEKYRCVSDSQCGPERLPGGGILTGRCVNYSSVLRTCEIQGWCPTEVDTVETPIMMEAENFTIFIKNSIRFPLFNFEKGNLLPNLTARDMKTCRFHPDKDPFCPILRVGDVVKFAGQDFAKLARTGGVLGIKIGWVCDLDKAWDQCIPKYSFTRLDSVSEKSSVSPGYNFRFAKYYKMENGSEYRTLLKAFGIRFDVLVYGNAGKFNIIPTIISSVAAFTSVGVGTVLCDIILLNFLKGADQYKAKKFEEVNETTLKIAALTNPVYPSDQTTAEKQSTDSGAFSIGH
Experimental: as §1, §2, §3

Structure (SMILES)	pKi P2X3 (rat P2X3 receptor)	pKi P2X2/3 (human P2X2/3 receptor)
Cc1ccc(-c2cc(C(=O)N[C@@H](C)CO)cc3c2cnn3-c2ccccc2C)nc1 [Compound 19, 4-(5-Methyl-1-pyridin-2-yl)-1-o-tolyl-1H-indazole-6-carboxylic acid ((S)-2-hydroxy-1-methyl-ethyl)-amide]	7.98	6
COCCn1ncc2c(-c3ccc(C)cn3)cc(C(=O)NCc3cnc(C)cn3)cc21 [Compound 6, 1-(2-Methoxy-ethyl)-4-(5-methyl-pyridin-2-yl)-1H-indazole-6-carboxylic acid (5-methyl-pyrazin-2-ylmethyl)-amide]	5.51	5
Cc1ccc(-c2cc(C(=O)NCc3cnc(C)cn3)cc3c2cnn3-c2ccccc2C)nc1 [Compound 18, 4-(5-Methyl-pyridin-2-yl)-1-o-tolyl-1H-indazole-6-carboxylic acid (5-methyl-pyrazin-2-ylmethyl)-amide]	8.01	7.26
Cc1ccc(-c2cc(C(=O)N[C@@H](C)CO)cc3c2cnn3-c2ccccc2)nc1 [Compound 15, 4-(5-Methyl-pyridin-2-yl)-1-phenyl-1H-indazole-6-carboxylic acid ((S)-2-hydroxy-1-methyl-ethyl)-amide]	6.19	5.34
Cc1ccc(-c2cc(C(=O)NCc3cnc(C)cn3)cc3c2cnn3CC(F)(F)F)nc1 [Compound 12, 4-(5-Methyl-pyridin-2-yl)-1-(2,2,2-trifluoro-ethyl)-1H-indazole-6-carboxylic acid (5-methyl-pyrazin-2-ylmethyl)-amide]	6.52	5.7
Cc1ccc(-c2cc(C(=O)NCc3cnc(C)cn3)cc3c2cnn3Cc2ccccc2)nc1 [Compound 9, 1-Benzyl-4-(5-methyl-pyridin-2-yl)-1H-indazole-6-carboxylic acid (5-methyl-pyrazin-2-ylmethyl)-amide]	7.25	6.25

— patent publication US9440956B2, “Indole, indazole and benzimidazole arylamides as P2X3 and P2X2/3 antagonists” (Roche Palo Alto LLC, priority 2010, dated 2016)
